This is an account of results in ChEMBL document CHEMBL5465560, “Selectivity Literature for EUbOPEN Chemogenomic Library” (2024).

Experiment [1] deals with T1, Phosphatidylinositol 3-kinase C2 domain-containing subunit gamma (Homo sapiens) (UniProt O75747).
T1 sequence (whole entry): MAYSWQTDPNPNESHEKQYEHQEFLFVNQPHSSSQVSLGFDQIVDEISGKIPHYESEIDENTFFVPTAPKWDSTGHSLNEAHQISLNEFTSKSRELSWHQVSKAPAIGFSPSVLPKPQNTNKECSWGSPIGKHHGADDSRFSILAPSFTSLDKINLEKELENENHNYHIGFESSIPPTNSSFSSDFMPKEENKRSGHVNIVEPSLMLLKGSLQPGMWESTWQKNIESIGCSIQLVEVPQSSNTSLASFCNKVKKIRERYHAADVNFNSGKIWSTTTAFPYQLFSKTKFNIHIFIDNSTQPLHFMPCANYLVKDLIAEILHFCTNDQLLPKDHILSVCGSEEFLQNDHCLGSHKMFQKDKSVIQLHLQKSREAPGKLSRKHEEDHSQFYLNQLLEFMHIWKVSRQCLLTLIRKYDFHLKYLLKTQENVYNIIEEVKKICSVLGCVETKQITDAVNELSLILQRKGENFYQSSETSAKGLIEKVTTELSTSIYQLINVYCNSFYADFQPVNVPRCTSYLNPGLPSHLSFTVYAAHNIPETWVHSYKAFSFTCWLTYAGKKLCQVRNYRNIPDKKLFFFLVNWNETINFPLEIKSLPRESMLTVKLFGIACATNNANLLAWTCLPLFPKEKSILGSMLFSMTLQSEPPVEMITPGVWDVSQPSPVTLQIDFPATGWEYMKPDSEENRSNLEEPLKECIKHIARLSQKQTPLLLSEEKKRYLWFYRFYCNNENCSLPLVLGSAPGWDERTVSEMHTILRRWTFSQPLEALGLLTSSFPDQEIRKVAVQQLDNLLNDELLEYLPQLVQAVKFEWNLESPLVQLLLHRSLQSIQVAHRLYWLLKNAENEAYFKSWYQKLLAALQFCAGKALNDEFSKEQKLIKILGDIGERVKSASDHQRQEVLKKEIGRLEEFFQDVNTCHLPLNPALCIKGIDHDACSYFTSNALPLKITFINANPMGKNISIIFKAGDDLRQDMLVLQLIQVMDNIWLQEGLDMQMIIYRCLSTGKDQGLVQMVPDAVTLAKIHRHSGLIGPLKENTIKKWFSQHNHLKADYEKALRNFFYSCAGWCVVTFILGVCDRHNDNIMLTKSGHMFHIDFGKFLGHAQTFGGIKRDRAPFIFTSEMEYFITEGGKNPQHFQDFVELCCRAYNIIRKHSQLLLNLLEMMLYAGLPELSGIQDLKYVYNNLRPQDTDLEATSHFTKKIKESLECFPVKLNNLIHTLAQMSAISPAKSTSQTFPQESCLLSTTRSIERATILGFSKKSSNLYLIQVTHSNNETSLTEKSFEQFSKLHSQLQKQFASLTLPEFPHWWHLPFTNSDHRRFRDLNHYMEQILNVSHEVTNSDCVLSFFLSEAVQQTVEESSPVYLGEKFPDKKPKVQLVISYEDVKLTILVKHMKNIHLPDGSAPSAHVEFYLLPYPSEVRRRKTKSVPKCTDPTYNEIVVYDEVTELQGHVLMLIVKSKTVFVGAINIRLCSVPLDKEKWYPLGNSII
In words: Selectivity interaction (KinomeScan (DiscoverX)) EUB0001619a PIK3C2G. Particulars: at 1 µM.

Experiment [2] has as its system Epidermal growth factor receptor (Homo sapiens), P00533 [UNDEFINED MUTATION]. Nature of the experiment: Selectivity interaction (KinomeScan (DiscoverX)) EUB0000607a EGFR. Particulars: at 10 µM.
Experiment [3] has as its target T2, Aurora kinase A (Homo sapiens) (UniProt O14965).
T2 sequence (whole entry): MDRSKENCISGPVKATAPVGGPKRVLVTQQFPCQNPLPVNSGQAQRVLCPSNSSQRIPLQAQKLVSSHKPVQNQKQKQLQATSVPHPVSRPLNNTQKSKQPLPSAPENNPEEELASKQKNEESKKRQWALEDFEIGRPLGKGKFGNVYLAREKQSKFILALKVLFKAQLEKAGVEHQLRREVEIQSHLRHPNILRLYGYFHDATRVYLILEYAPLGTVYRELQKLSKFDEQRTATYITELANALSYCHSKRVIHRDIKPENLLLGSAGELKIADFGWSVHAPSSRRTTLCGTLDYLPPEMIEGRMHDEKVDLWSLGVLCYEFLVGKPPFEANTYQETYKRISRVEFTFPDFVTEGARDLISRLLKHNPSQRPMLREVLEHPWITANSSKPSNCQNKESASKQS
Nature of the experiment: Selectivity interaction (KinaseProfiler screening (Millipore)) EUB0000601a STK6. The conditions noted are these: at 3 µM.

A further experiment concerns the target Activated CDC42 kinase 1 (Homo sapiens, UniProt Q07912).
Experiment [4] has as its target Serine/threonine-protein kinase MARK1 (Homo sapiens) (UniProt Q9P0L2). Nature of the experiment: Selectivity interaction (KinomeScan (DiscoverX)) EUB0000655a MARK1. The conditions noted are these: at 10 µM.
In experiment [5] the target is Histone-lysine N-methyltransferase ASH1L (Homo sapiens) (UniProt Q9NR48). In words: Selectivity interaction (Bromodomain panel (DSF asssay)) EUB0000270b ASH1L.

Serine/threonine-protein kinase MARK1 (Homo sapiens), sequence (Q9P0L2 whole entry, looked up): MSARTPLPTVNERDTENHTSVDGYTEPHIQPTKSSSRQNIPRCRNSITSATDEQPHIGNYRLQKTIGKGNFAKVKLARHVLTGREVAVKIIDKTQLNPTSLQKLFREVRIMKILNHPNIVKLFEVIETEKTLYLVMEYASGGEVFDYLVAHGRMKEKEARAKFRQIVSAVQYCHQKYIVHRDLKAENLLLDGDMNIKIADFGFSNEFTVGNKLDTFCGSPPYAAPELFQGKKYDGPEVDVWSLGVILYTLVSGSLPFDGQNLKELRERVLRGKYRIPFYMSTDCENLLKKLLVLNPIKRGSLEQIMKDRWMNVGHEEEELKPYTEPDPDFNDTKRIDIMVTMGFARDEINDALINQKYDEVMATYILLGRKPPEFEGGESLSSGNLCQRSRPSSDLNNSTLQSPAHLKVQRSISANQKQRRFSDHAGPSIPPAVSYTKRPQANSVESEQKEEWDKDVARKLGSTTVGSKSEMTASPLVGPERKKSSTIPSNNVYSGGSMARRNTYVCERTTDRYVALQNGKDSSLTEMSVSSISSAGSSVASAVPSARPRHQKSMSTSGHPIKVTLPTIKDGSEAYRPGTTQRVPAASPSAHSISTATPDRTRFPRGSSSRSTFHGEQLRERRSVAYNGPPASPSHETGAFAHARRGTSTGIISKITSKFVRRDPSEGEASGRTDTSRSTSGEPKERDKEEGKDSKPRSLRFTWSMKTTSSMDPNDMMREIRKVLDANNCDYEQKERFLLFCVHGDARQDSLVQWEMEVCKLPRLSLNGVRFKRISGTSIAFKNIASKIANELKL
Activated CDC42 kinase 1, sequence (Q07912 whole entry): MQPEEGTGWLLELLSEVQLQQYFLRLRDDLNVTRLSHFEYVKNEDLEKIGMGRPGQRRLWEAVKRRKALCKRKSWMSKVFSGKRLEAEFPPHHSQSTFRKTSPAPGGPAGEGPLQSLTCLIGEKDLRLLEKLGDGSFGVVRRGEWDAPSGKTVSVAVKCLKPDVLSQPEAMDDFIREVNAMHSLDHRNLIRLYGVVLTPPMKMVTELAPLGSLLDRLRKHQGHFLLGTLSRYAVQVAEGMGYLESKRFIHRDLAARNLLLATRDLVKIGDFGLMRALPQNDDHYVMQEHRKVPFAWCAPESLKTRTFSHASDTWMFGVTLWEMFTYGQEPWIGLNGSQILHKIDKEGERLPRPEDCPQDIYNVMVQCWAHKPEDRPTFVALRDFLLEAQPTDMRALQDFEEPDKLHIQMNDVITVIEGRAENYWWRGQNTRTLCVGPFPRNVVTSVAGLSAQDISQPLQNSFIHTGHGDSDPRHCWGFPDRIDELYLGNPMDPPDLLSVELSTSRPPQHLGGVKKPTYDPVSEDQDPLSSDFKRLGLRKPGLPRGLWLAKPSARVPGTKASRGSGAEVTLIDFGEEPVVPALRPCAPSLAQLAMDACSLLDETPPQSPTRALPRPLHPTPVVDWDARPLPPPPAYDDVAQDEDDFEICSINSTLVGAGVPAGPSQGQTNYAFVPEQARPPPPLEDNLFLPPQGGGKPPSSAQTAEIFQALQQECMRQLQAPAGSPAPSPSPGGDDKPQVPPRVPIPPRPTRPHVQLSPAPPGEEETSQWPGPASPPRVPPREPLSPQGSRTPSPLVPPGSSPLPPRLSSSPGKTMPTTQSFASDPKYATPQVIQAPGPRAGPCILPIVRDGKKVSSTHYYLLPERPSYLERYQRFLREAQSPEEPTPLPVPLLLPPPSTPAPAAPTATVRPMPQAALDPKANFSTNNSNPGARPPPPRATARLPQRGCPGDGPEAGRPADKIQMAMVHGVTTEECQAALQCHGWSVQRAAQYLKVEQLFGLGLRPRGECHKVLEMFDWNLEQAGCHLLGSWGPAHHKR
Epidermal growth factor receptor (Homo sapiens), P00533 [UNDEFINED MUTATION], sequence (P00533 whole entry, looked up, change not shown): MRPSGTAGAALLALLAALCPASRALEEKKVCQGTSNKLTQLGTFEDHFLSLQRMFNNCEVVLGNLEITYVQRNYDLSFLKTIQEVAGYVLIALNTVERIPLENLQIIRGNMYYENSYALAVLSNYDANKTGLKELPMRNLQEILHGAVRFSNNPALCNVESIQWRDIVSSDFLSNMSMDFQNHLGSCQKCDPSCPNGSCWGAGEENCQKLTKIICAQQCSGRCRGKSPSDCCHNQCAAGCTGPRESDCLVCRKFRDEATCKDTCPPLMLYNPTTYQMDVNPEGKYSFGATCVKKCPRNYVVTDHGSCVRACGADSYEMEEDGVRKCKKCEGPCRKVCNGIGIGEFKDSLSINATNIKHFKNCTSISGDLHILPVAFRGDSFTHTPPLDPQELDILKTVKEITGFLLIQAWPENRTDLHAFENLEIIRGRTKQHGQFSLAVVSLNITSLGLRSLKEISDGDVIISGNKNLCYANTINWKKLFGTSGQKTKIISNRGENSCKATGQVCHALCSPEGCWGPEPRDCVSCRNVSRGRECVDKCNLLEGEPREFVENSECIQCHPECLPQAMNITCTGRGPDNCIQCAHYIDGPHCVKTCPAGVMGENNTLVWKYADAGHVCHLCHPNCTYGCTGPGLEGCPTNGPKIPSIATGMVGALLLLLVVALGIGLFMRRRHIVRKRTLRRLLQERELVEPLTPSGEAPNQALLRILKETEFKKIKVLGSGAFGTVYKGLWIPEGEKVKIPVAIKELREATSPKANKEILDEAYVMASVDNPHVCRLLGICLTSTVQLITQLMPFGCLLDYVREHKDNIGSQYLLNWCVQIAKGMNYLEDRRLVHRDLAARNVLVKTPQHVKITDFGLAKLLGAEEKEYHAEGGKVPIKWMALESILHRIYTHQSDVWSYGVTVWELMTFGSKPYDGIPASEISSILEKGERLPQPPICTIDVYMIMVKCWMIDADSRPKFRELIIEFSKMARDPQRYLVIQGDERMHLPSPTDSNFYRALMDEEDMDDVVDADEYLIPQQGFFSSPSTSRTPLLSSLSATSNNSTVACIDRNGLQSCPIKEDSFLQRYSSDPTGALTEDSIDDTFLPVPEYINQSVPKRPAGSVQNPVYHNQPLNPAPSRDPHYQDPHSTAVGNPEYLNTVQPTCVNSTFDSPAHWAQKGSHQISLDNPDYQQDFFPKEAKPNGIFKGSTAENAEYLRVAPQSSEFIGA

In experiment [1], `N#Cc1cccc(-c2c[nH]c3ncnc(N4CCOCC4)c23)c1` showed a % of control of 100%.

Compound `CNC(=O)Nc1ccc(-c2nc(N3CC4CCC(C3)O4)c3cnn(C4CCC5(CC4)OCCO5)c3n2)cc1` came in with a % of control in experiment [2] of 55%. The compound `CCc1cc(Nc2nccc(-c3c(-c4ccc(OC)c(C(=O)Nc5c(F)cccc5F)c4)nc4ccccn34)n2)c(OC)cc1N1CCC(N2CCN(S(C)(=O)=O)CC2)CC1` gave a % of inhibition in experiment [3] of 76%. By IC50 is commonly meant the concentration needed to halve the response being measured. Consider `CCc1cccc(CC)c1NC(=O)c1nn(C)c2c1CCc1cnc(Nc3ccc(C(=O)NC4CCN(C)CC4)cc3OC(F)(F)F)nc1-2`, for which, at Activated CDC42 kinase 1, the 50% inhibitory concentration (IC50) is above 10 µM.

Turning to `CN(C)CCOc1ccc(-c2nc(-c3ccncc3)c(-c3ccc4c(c3)CC/C4=N\O)[nH]2)cc1`, the % of control in experiment [4] was found to be 100%. `Cc1cc(CN)cc(C)c1-c1ncn(C)c1-c1cncn1C` registered a dTM in experiment [5] of -1.06 K.
